Values of other authors in PubChem BioAssay AID1259409 (Chemical Carcinogenesis Research Information System (CCRIS), 2018).

Test system: rodent chemically induced tumor inhibition, incidence and multiplicity
Test: CCRIS tumor inhibitor studies
Conditions: Dose [Inhibitor]: 0, Route [Inhibitor]: ORAL, Species: RAT, Promoter: NONE USED

In the case of O=c1oc2c(O)c(O)cc3c(=O)oc4c(O)c(O)cc1c4c23, the “tumour outcome (control, treated, inhibition, significance)” value (Carcinogen: DIETHYLNITROSAMINE, 55-18-5, N-METHYLNITROSOUREA, 684-93-5, 1,2-DIMETHYLHYDRAZINE, 540-73-8, N-BUTYL-N-(4-HYDROXYB, Carcinogen: DIETHYLNITROSAMINE, 55-18-5, N-METHYLNITROSOUREA, 684-93-5, 1,2-DIMETHYLHYDRAZINE, 540-73-8, N-BUTYL-N-(4-HYDROXYB, 1% IN DIET FOR 4 WK BEGINNING 1 DAY PRIOR TO CARCINOGEN TREATMENT (STUDY DURATION: 36 WK), Strain/Sex: F344/MALE, Target Tissue: Type of Lesion: SMALL INTESTINE: CARCINOMA, Dose [Carcinogen]: 100 MG/KG DEN ONCE, 20 MG/KG MNU 4 TIMES, 40 MG/KG DMH 4 TIMES, 0.05% BBN IN DRINKING WATER FOR 2 WK, 0.1% DHPN IN D, Dose [Carcinogen]: 100 MG/KG DEN ONCE, 20 MG/KG MNU 4 TIMES, 40 MG/KG DMH 4 TIMES, 0.05% BBN IN DRINKING WATER FOR 2 WK, 0.1% DHPN IN D) is given as 5/14 (36%), 0/12 (0%), 100%, p<0.05, the “tumour outcome (control, treated, inhibition, significance)” value (Carcinogen: DIETHYLNITROSAMINE, 55-18-5, N-METHYLNITROSOUREA, 684-93-5, 1,2-DIMETHYLHYDRAZINE, 540-73-8, N-BUTYL-N-(4-HYDROXYB, Carcinogen: DIETHYLNITROSAMINE, 55-18-5, N-METHYLNITROSOUREA, 684-93-5, 1,2-DIMETHYLHYDRAZINE, 540-73-8, N-BUTYL-N-(4-HYDROXYB, 1% IN DIET FOR 4 WK BEGINNING 1 DAY PROIR TO CARCINOGEN TREATMENT (STUDY DURATION: 36 WK), Strain/Sex: F344/MALE, Target Tissue: Type of Lesion: LUNG: ADENOMA, Dose [Carcinogen]: 100 MG/KG DEN ONCE, 20 MG/KG MNU 4 TIMES, 40 MG/KG DMH 4 TIMES, 0.05% BBN IN DRINKING WATER FOR 2 WK, 0.1% DHPN IN D, Dose [Carcinogen]: 100 MG/KG DEN ONCE, 20 MG/KG MNU 4 TIMES, 40 MG/KG DMH 4 TIMES, 0.05% BBN IN DRINKING WATER FOR 2 WK, 0.1% DHPN IN D) is given as 6/14 (43%), 1/12 (8%), 81%, not significant and the “tumour outcome (control, treated, inhibition, significance)” value (Carcinogen: DIETHYLNITROSAMINE, 55-18-5, N-METHYLNITROSOUREA, 684-93-5, 1,2-DIMETHYLHYDRAZINE, 540-73-8, N-BUTYL-N-(4-HYDROXYB, Carcinogen: DIETHYLNITROSAMINE, 55-18-5, N-METHYLNITROSOUREA, 684-93-5, 1,2-DIMETHYLHYDRAZINE, 540-73-8, N-BUTYL-N-(4-HYDROXYB, 1% IN DIET FOR 32 WK BEGINNING POST CARCINOGEN TREATMENT (STUDY DURATION: 36 WK), Strain/Sex: F344/MALE, Target Tissue: Type of Lesion: KIDNEY: ADENOMA, Dose [Carcinogen]: 100 MG/KG DEN ONCE, 20 MG/KG MNU 4 TIMES, 40 MG/KG DMH 4 TIMES, 0.05% BBN IN DRINKING WATER FOR 2 WK, 0.1% DHPN IN D, Dose [Carcinogen]: 100 MG/KG DEN ONCE, 20 MG/KG MNU 4 TIMES, 40 MG/KG DMH 4 TIMES, 0.05% BBN IN DRINKING WATER FOR 2 WK, 0.1% DHPN IN D) is given as 4/14 (29%), 2/13 (15%), 48%, not significant. The “tumour outcome (control, treated, inhibition, significance)” value (Carcinogen: DIETHYLNITROSAMINE, 55-18-5, N-METHYLNITROSOUREA, 684-93-5, 1,2-DIMETHYLHYDRAZINE, 540-73-8, N-BUTYL-N-(4-HYDROXYB, Carcinogen: DIETHYLNITROSAMINE, 55-18-5, N-METHYLNITROSOUREA, 684-93-5, 1,2-DIMETHYLHYDRAZINE, 540-73-8, N-BUTYL-N-(4-HYDROXYB, 1% IN DIET FOR 32 WK BEGINNING POST CARCINOGEN TREATMENT (STUDY DURATION: 36 WK), Strain/Sex: F344/MALE, Target Tissue: Type of Lesion: KIDNEY: NEPHROBLASTOMA, Dose [Carcinogen]: 100 MG/KG DEN ONCE, 20 MG/KG MNU 4 TIMES, 40 MG/KG DMH 4 TIMES, 0.05% BBN IN DRINKING WATER FOR 2 WK, 0.1% DHPN IN D, Dose [Carcinogen]: 100 MG/KG DEN ONCE, 20 MG/KG MNU 4 TIMES, 40 MG/KG DMH 4 TIMES, 0.05% BBN IN DRINKING WATER FOR 2 WK, 0.1% DHPN IN D) was 7/14 (50%), 5/13 (38%), 24%, not significant, the “tumour outcome (control, treated, inhibition, significance)” value (Carcinogen: DIETHYLNITROSAMINE, 55-18-5, N-METHYLNITROSOUREA, 684-93-5, 1,2-DIMETHYLHYDRAZINE, 540-73-8, N-BUTYL-N-(4-HYDROXYB, Carcinogen: DIETHYLNITROSAMINE, 55-18-5, N-METHYLNITROSOUREA, 684-93-5, 1,2-DIMETHYLHYDRAZINE, 540-73-8, N-BUTYL-N-(4-HYDROXYB, 1% IN DIET FOR 32 WK BEGINNING POST CARCINOGEN TREATMENT (STUDY DURATION: 36 WK), Strain/Sex: F344/MALE, Target Tissue: Type of Lesion: LARGE INTESTINE: CARCINOMA, Dose [Carcinogen]: 100 MG/KG DEN ONCE, 20 MG/KG MNU 4 TIMES, 40 MG/KG DMH 4 TIMES, 0.05% BBN IN DRINKING WATER FOR 2 WK, 0.1% DHPN IN D, Dose [Carcinogen]: 100 MG/KG DEN ONCE, 20 MG/KG MNU 4 TIMES, 40 MG/KG DMH 4 TIMES, 0.05% BBN IN DRINKING WATER FOR 2 WK, 0.1% DHPN IN D) was 3/14 (21%), 6/12 (50%), -138%, not significant and the “tumour outcome (control, treated, inhibition, significance)” value (Carcinogen: DIETHYLNITROSAMINE, 55-18-5, N-METHYLNITROSOUREA, 684-93-5, 1,2-DIMETHYLHYDRAZINE, 540-73-8, N-BUTYL-N-(4-HYDROXYB, Carcinogen: DIETHYLNITROSAMINE, 55-18-5, N-METHYLNITROSOUREA, 684-93-5, 1,2-DIMETHYLHYDRAZINE, 540-73-8, N-BUTYL-N-(4-HYDROXYB, 1% IN DIET FOR 32 WK BEGINNING POST CARCINOGEN TREATMENT (STUDY DURATION: 36 WK), Strain/Sex: F344/MALE, Target Tissue: Type of Lesion: SMALL INTESTINE: ADENOMA, Dose [Carcinogen]: 100 MG/KG DEN ONCE, 20 MG/KG MNU 4 TIMES, 40 MG/KG DMH 4 TIMES, 0.05% BBN IN DRINKING WATER FOR 2 WK, 0.1% DHPN IN D, Dose [Carcinogen]: 100 MG/KG DEN ONCE, 20 MG/KG MNU 4 TIMES, 40 MG/KG DMH 4 TIMES, 0.05% BBN IN DRINKING WATER FOR 2 WK, 0.1% DHPN IN D) was 6/14 (43%), 0/12 (0%), 100%, < p<0.05. The “tumour outcome (control, treated, inhibition, significance)” value (Carcinogen: DIETHYLNITROSAMINE, 55-18-5, N-METHYLNITROSOUREA, 684-93-5, 1,2-DIMETHYLHYDRAZINE, 540-73-8, N-BUTYL-N-(4-HYDROXYB, Carcinogen: DIETHYLNITROSAMINE, 55-18-5, N-METHYLNITROSOUREA, 684-93-5, 1,2-DIMETHYLHYDRAZINE, 540-73-8, N-BUTYL-N-(4-HYDROXYB, 1% IN DIET FOR 32 WK BEGINNING POST CARCINOGEN TREATMENT (STUDY DURATION: 36 WK), Strain/Sex: F344/MALE, Target Tissue: Type of Lesion: SMALL INTESTINE: CARCINOMA, Dose [Carcinogen]: 100 MG/KG DEN ONCE, 20 MG/KG MNU 4 TIMES, 40 MG/KG DMH 4 TIMES, 0.05% BBN IN DRINKING WATER FOR 2 WK, 0.1% DHPN IN D, Dose [Carcinogen]: 100 MG/KG DEN ONCE, 20 MG/KG MNU 4 TIMES, 40 MG/KG DMH 4 TIMES, 0.05% BBN IN DRINKING WATER FOR 2 WK, 0.1% DHPN IN D) was 5/14 (36%), 1/12 (8%), 78%, not significant, the “tumour outcome (control, treated, inhibition, significance)” value (Carcinogen: DIETHYLNITROSAMINE, 55-18-5, N-METHYLNITROSOUREA, 684-93-5, 1,2-DIMETHYLHYDRAZINE, 540-73-8, N-BUTYL-N-(4-HYDROXYBU, Carcinogen: DIETHYLNITROSAMINE, 55-18-5, N-METHYLNITROSOUREA, 684-93-5, 1,2-DIMETHYLHYDRAZINE, 540-73-8, N-BUTYL-N-(4-HYDROXYBU, 1% IN DIET FOR 32 WK BEGINNING POST CARCINOGEN TREATMENT (STUDY DURATION: 36 WK), Strain/Sex: F344/MALE, Target Tissue: Type of Lesion: LARGE INTESTINE: ADENOMA, Dose [Carcinogen]: 100 MG/KG DEN ONCE, 20 MG/KG MNU 4 TIMES, 40 MG/KG DMH 4 TIMES, 0.05% BBN IN DRINKING WATER FOR 2 WK, 0.1% DHPN IN D, Dose [Carcinogen]: 100 MG/KG DEN ONCE, 20 MG/KG MNU 4 TIMES, 40 MG/KG DMH 4 TIMES, 0.05% BBN IN DRINKING WATER FOR 2 WK, 0.1% DHPN IN D) was 7/14 (50%), 3/12 (25%), 50%, not significant and the “tumour outcome (control, treated, inhibition, significance)” value (Carcinogen: DIETHYLNITROSAMINE, 55-18-5, N-METHYLNITROSOUREA, 684-93-5, 1,2-DIMETHYLHYDRAZINE, 540-73-8, N-BUTYL-N-(4-HYDROXYBU, Carcinogen: DIETHYLNITROSAMINE, 55-18-5, N-METHYLNITROSOUREA, 684-93-5, 1,2-DIMETHYLHYDRAZINE, 540-73-8, N-BUTYL-N-(4-HYDROXYBU, 1% IN DIET FOR 32 WK BEGINNING POST CARCINOGEN TREATMENT (STUDY DURATION: 36 WK), Strain/Sex: F344/MALE, Target Tissue: Type of Lesion: LUNG: ADENOMA, Dose [Carcinogen]: 100 MG/KG DEN ONCE, 20 MG/KG MNU 4 TIMES, 40 MG/KG DMH 4 TIMES, 0.05% BBN IN DRINKING WATER FOR 2 WK, 0.1% IN DRINKI, Dose [Carcinogen]: 100 MG/KG DEN ONCE, 20 MG/KG MNU 4 TIMES, 40 MG/KG DMH 4 TIMES, 0.05% BBN IN DRINKING WATER FOR 2 WK, 0.1% IN DRINKI) was 6/14 (43%), 1/13 (8%), 81%, p<0.05. The “tumour outcome (control, treated, inhibition, significance)” value (Carcinogen: N-NITROQUINOLINE-1-OXIDE, 56-57-5, 400 PPM IN DIET FOR 7 WK BEGINNING 1 WK PRIOR TO START OF CARCINOGEN TREATMENT (STUDY DURATION: 32 WK), Strain/Sex: F344\MALE, Target Tissue: Type of Lesion: TONGUE: CARCINOMA, Dose [Carcinogen]: 20 PPM IN DRINKING WATER FOR 5 WK) was 9/15 (60%), 0/15 (0%), 100%, p=0.00035, the outcome (Carcinogen: N-NITROSOBENZYLMETHYLAMINE, 937-40-6, 0.4 G/KG IN DIET BEGINNING 2 WK PRIOR TO FIRST CARCINOGEN DOSE (STUDY DURATION: 20 WK), Strain/Sex: F-344/MALE, Target Tissue: Type of Lesion: ESOPHAGUS: TUMOR, Dose [Carcinogen]: 0.5, 1.25 MG/KG 1/WK FOR 18 WK) was 15/15 (100%), 14/15 (93%), 7%, not calculated (low dose carcinogen); 15/15 (100% and the “tumour outcome (control, treated, inhibition, significance)” value (Carcinogen: N-NITROSOBENZYLMETHYLAMINE, 937-40-6, 0.4 G/KG IN DIET BEGINNING 2 WK PRIOR TO FIRST CARCINOGEN DOSE (STUDY DURATION: 27 WK), Strain/Sex: F-344/MALE, Target Tissue: Type of Lesion: ESOPHAGUS: TUMOR, Dose [Carcinogen]: 0.5, 1.25 MG/KG 1/WK FOR 18 WK) was 15/15 (100%), 15/15 (100%), 0%, not calculated (low dose carcinogen); 15/15 (100.
